Test results published in US20070071831A1, “Product for the prevention and the treatment of grapevine infections and method of preparation thereof” (Vomm Impianti e Processi S.p.A., priority 2005, published 2007).

What was measured:
corky bark = assay: Vineyard treatment of grapevine plants against corky bark; type: in vivo; conditions: remaining plants (more than 500) of the same vineyard
Source text: Finally, some preliminary experiments have shown that the product of the invention is effective not only against downy mildew infections but also against other plant diseases such as, in particular, corky bark, caused by the phytoplasm transmitted by the vector Scaphoideus titanus Ball, a Deltocefalinae plathopper.
In particular the product has been tested on 70 grapevine plants arranged on five rows in a vineyard wherein the remaining plants (more than 500) have been treated with a conventional synthetic plant protection product (Fenitrothion).

downy mildew = assay: Vineyard treatment of grapevine plants against downy mildew; type: in vivo, Plasmopara viticola; conditions: remaining plants of a vineyard of approximately 1000 grapevine plants; same number and times of applications; beginning of March to end of July
Method: The product obtained according to example 1 was diluted with water, mixing a part of product with ten parts of water and it was used to treat the grapevine plants.
The product thus diluted was applied by spraying on 70 grapevine plants arranged in 5 rows in a vineyard comprising approximately 1000 grapevine plants. The remaining plants were then treated with a conventional synthetic plant protection product (Metiram).
The treatments were carried out during the period between the beginning of March and the end of July, each time applying a quantity of 100 g of diluted product per plant. The same number of applications as those of the conventional plant protection product were carried out, at the same times.

| Molecule | plants attacked by corky bark (corky bark) | plants showing obvious signs of downy mildew infestation (downy mildew) |
| --- | --- | --- |
| COP(=S)(OC)Oc1ccc([N+](=O)[O-])c(C)c1 [Fenitrothion] | majority | – |
| Metiram | – | 18% |
